Data as given in article PMC5824344 (ACS Chemical Biology, 2017).
pIC50: −log10 of the molar value.

What was measured:
Rat intestinal maltase = assay: Inhibition of rat intestinal maltase (natural substrate, glucose release); type: biochemical; conditions: isolated enzyme in vitro; mean of three measurements; read-out: IC50, α-Glucosidase, Rat intestinal maltase
Protocol: (§1) 4 Enzyme Inhibition Assays
(§2) All rat enzymes were isolated from 18-week-old, male Wistar rats, while human lysosomal α-glucosidase was obtained in commercially available form from Sanoﬁ Genzyme. Inhibition of isolated glucosidases was evaluated as described previously. 3 Brieﬂy, maltase, isomaltase, sucrase, and cellobiase were used as partially puriﬁed tissue extracts. Inhibition assays for each enzyme were performed with the respective natural substrate, and release of d-glucose measured by Glucose B-test (Wako Diagnostics). Assays of rat ER α-glucosidase II and human lysosomal α-glucosidase inhibition were conducted with α-p-nitrophenylglucoside as substrate; 400 mm Na2CO3 was added to quench these reactions, and the extent of hydrolysis was evaluated as absorbance at 400 nm by spectrophotometer.
(§3) ER α-glucosidase I inhibition assays were performed using anthranilic acid-labelled Glc3Man7GlcNAc2 as substrate. After terminating the reaction with acetonitrile, protein was removed by cen-trifugation through a 10 kDa molecular weight cut oﬀ ﬁlter. The amount of hydrolysis was then quantiﬁed by normal phase high performance liquid chromatography analysis of unreacted substrate and product (Glc2Man7GlcNAc2).4
(§4) ER α-glucosidase II inhibition assays using native-like substrates were performed using an-thranilic acid-labelled Glc2Man7GlcNAc2 as substrate. After terminating the reaction with acetonitrile, protein was removed by centrifugation through a 10 kDa molecular weight cut oﬀ ﬁlter. The amount of hydrolysis was then quantiﬁed by normal phase high performance liq-uid chromatography analysis of unreacted substrate and both products (Glc1Man7GlcNAc2

[1] = molecular target: T1, Rat intestinal isomaltase (Rattus norvegicus, UniProt P23739); assay: Inhibition of rat intestinal isomaltase (natural substrate, glucose release); type: biochemical; conditions: isolated enzyme in vitro; mean of three measurements; read-out: IC50, α-Glucosidase, Rat intestinal isomaltase
T1 construct: from tissue; host or cells: intestine of male Wistar rats, partially purified extract
Protocol: as §1, §2, §3, §4

[2] = molecular target: T2, Rat liver ER α-glucosidase II (Rattus norvegicus, UniProt A0A8I6GFL3); assay: Inhibition of isolated rat liver ER α-glucosidase II (α-p-nitrophenylglucoside substrate); type: biochemical; conditions: isolated enzyme in vitro; read-out: IC50 with regard to GluII
T2 construct: Rat liver ER, II; from tissue; host or cells: liver of male Wistar rats
Protocol: as §1, §2, §3, §4

[3] = molecular target: T3, Rat liver ER α-glucosidase I (Rattus norvegicus, UniProt O88941); assay: Inhibition of isolated rat liver ER α-glucosidase I (anthranilic acid-labelled Glc3Man7GlcNAc2 substrate, HPLC); type: biochemical; conditions: isolated enzyme in vitro; mean of three measurements
T3 construct: Rat liver ER, I; from tissue; host or cells: liver of male Wistar rats
T3 sequence (O88941 1-834): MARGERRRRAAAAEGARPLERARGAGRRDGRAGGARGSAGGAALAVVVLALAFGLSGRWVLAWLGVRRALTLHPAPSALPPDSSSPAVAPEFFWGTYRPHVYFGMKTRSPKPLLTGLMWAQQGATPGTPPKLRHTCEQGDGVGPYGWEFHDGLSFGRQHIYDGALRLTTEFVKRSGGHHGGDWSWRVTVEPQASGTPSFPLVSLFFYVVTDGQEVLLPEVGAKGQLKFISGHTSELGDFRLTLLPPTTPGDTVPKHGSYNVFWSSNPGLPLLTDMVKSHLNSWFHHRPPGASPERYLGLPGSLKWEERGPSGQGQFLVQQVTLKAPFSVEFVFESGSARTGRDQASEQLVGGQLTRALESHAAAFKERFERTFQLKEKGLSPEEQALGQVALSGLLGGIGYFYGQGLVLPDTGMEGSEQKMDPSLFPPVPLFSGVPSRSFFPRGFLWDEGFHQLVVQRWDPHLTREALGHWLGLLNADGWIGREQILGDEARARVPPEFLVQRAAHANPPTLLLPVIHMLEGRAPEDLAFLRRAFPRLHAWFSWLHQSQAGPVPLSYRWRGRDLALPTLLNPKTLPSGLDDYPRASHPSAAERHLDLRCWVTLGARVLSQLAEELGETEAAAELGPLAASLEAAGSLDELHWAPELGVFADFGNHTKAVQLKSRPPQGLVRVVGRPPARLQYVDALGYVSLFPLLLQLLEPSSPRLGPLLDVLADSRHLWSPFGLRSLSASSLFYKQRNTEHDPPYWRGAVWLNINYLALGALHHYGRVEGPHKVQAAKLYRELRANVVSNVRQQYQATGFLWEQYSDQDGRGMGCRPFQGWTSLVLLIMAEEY
Protocol: as §1, §2, §3, §4

[4] = parameters: method as in PMID 15522126; conditions: cited from earlier work
[5] = system: DENV2 strain 16681 in primary human MDMΦ; assay: DENV primary MDMΦ antiviral assay (infectious titer by plaque assay); type: cell-based, dengue virus; conditions: dengue-infected MDMΦ, 7 donors
Protocol: each well was scored as either positive (≥ 5 stained cells) or negative. TCID50 values were calculated according to the method of Reed and Muench.8
5.7 DENV Primary MDMΦ Antiviral Assay
DENV2 strain 16681 (a gift from Prof. E. Gould, Centre for Ecology and Hydrology, Oxford, United Kingdom) was propagated in the C6/36 cell line. In the antiviral assay, MDMΦ cells (7 donors) were seeded in a 24-well plate at a density of 1× 10^6 cells/well in 1 mL of growth media. The cells were inoculated for 2 h with DENV2 16681 strain at an MOI of 1. […]
(§5) The infectious DENV titres in supernatants collected were evaluated by plaque assay as described previously.9 Brieﬂy, LLC-MK2 cells were seeded in conﬂuent monolayers in a 12-well plate. Four 10-fold dilutions of each supernatant to be analyzed were prepared in minimum essential media (MEM, Gibco), supplemented with 100 µg mL−1 streptomycin, 100 U mL−1 penicillin and 10% (v/v) FCS. […]
(§6) After 1 d, plaques were observed and counted from the underside of the plate by eye. […]
18 healthy male BALB/c mice (8 – 12 weeks old) weighing between 20 and 35 g were procured from ACTREC, Mumbai, India. […] Temperature and humidity were recorded by an auto-controlled data logging system and maintained at 22± 3◦C and 55± 15% humidity, respectively. […]

[6] = system: HCV (JFH-1) in Huh7.5 cells; assay: HCV antiviral assay in Huh7.5 cells (infectious titer by TCID50 assay); type: cell-based, hepatitis C virus; conditions: MOI 2, 96 h, titration of 4 or 50 µm of 3
Protocol: (§7) Supplemental Figure 3: Antiviral activity of 4 in human hepatoma Huh7.5 cell line.
(§8) (A) Huh7.5 cells were infected with DENV (serotype 2, strain 16681, multiplicity of infection = 0.1) and treated with a titration of ToP-DNJ 4 or 50 µm of tocopherol 3 for 48 h. Infectious virus titer was measured by plaque assay on LLC-MK2 cells. Counts were normalized to 100% for untreated samples.
(§9) DENV eﬀect at the concentrations tested. (B) Huh7.5 cells were infected with HCV (JFH-1, multiplicity of infection = 2) and treated with a titration of ToP-DNJ 4 or 50 µm tocopherol 3 for 96 h. Infectious virus titer was measured by TCID50 assay on […]
(§10) tested. In both panels, each data point represent the mean of triplicates, with error bars showing standard error of the mean (GraphPad Prism). […]
Huh7.5 cells were seeded in a 96-well plate at a density of 5× 10^3 cells/well in 100 µL growth media. […] The supernatant was harvested, and infectious viral titre assessed immediately in the TCID50 assay.
Huh7.5 cells were seeded in a 96-well plate at a density of 2× 10^4 cells/well in 100 µL of growth media and incubated for 18 h. The supernatants to be evaluated were diluted 1:10 in growth media, and 7 serial half-log10 dilutions were subsequently prepared in the same media. […]
(§11) each well was scored as either positive (≥ 5 stained cells) or negative. TCID50 values were calculated according to the method of Reed and Muench.8 […]

[7] = system: DENV (serotype 2, strain 16681) in Huh7.5 cells; assay: DENV Huh7.5 antiviral assay (infectious titer by plaque assay); type: cell-based, dengue virus; conditions: MOI 0.1, 48 h, titration of 4 or 50 µm of 3
Protocol: as §7, §8, §9, §10, §11, §5, §6

T2 sequence (A0A8I6GFL3 33-944): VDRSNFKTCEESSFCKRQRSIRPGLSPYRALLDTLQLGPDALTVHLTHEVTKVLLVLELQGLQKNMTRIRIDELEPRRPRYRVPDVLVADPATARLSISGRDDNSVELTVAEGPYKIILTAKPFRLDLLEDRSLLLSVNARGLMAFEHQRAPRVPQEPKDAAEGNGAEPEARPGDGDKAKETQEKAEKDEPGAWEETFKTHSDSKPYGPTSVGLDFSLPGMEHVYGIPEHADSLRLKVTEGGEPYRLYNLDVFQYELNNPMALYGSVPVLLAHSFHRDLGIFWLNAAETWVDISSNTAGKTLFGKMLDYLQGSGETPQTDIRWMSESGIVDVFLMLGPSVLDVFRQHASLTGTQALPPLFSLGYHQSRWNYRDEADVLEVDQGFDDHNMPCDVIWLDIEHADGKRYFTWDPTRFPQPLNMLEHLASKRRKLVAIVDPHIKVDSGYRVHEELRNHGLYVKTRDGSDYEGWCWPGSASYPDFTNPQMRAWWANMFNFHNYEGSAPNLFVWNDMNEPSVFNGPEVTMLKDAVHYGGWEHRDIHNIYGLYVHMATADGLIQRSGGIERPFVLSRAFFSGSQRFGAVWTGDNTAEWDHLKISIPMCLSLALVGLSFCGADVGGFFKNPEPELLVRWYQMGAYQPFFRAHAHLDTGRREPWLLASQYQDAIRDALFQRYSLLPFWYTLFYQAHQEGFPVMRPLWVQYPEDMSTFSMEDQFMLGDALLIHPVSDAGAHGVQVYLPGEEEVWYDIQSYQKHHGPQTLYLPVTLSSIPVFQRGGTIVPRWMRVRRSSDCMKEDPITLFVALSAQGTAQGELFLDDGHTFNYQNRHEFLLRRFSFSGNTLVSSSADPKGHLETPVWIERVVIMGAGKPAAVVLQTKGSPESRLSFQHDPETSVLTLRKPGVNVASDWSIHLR
T2 sequence (A0A8I6ADW9 1-525 partner): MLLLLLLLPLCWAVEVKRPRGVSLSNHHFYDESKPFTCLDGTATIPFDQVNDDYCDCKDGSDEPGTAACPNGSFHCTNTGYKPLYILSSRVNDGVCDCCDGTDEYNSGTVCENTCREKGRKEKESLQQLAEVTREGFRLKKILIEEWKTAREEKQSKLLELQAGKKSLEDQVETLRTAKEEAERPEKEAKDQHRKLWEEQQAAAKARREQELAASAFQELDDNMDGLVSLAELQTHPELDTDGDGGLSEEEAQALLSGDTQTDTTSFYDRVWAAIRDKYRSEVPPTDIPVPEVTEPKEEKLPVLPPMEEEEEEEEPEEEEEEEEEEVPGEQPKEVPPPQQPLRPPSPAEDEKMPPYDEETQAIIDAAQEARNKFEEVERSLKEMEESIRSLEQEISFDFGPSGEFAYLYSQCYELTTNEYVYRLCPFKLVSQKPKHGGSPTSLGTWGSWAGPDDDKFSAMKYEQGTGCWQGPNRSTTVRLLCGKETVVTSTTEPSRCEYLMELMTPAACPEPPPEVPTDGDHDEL
T1 sequence (P23739 whole entry): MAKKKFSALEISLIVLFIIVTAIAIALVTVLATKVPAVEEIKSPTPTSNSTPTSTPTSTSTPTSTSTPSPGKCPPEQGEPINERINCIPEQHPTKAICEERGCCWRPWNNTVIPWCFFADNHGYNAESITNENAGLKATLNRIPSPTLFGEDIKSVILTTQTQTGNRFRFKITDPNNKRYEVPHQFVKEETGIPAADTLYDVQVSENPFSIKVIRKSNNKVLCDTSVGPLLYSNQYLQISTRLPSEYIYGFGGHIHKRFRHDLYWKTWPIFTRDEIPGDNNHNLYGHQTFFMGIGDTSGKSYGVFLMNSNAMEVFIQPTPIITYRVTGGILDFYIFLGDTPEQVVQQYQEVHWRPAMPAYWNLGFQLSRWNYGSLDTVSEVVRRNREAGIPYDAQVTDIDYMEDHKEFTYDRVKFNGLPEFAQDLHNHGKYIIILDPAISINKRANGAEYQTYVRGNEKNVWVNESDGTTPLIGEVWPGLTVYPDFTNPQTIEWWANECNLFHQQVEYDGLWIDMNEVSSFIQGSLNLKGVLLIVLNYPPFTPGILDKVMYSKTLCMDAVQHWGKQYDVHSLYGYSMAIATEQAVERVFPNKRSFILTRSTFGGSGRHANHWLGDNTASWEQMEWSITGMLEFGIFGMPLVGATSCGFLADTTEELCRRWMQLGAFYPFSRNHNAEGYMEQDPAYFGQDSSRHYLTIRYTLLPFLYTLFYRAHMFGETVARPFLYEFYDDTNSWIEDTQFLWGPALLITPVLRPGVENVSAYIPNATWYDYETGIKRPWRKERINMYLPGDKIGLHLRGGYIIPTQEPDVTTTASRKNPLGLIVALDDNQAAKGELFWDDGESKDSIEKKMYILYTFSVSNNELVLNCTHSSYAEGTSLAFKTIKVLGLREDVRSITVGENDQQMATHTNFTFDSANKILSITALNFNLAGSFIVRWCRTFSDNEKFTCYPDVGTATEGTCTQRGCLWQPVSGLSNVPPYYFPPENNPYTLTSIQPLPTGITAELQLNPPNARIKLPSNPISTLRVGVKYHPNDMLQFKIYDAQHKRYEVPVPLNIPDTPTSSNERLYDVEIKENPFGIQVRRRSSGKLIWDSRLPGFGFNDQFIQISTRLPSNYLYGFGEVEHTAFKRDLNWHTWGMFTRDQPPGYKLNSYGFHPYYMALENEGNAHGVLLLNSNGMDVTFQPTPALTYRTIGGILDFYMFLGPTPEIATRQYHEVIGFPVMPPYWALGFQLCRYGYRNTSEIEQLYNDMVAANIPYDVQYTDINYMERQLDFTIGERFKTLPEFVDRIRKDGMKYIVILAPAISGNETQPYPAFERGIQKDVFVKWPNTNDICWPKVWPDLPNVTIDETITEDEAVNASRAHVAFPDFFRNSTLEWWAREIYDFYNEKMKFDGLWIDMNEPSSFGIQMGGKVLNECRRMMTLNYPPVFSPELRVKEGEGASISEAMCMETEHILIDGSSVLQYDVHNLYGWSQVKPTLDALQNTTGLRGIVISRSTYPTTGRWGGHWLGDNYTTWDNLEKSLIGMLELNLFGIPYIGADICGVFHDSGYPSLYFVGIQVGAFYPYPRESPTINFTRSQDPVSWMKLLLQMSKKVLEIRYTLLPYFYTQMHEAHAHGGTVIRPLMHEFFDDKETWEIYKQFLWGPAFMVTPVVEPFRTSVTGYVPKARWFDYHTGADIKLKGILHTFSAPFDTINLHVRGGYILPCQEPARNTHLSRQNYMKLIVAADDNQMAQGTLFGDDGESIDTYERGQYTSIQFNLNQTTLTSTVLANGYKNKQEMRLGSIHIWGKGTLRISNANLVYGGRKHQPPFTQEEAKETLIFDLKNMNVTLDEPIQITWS

Compound	pIC50 (Rat intestinal maltase)	pIC50 [1]	pIC50 [2]	pIC50 [3]	increase of plasma levels when consumed with a lipid-rich meal [4] [fold]	antiviral effect on infectious virus titer [5]	anti-HCV effect (infectious virus titer) [6]	anti-DENV effect (infectious virus titer) [7]
OC[C@H]1NC[C@H](O)[C@@H](O)[C@@H]1O [Compound 1, D-1-deoxynojirimycin, reference compound]	6.80	6.10	4.80	5.66	–	–	–	–
Cc1c(C)c2c(c(C)c1O)CCC(C)(CCCC(C)CCCC(C)CCCC(C)C)O2 [Compound 3, D-(+)-α-tocopherol, reference compound]	–	–	–	–	10	no antiviral effect	Neither 4 nor 3 showed an anti-HCV eﬀect	Neither 4 nor 3 showed an anti-
